# Test results reported in ChEMBL document CHEMBL5338791, “Discovery of Novel 1,3-Diphenylpyrazine Derivatives as Potent S-Phase Kinase-Associated Protein 2 (Skp2) Inhibitors for the Treatment of Cancer” (J Med Chem, 2023).
# pIC50: −log10 of the molar value. The source made the active and inactive calls. The rule behind the calls is not given here.
# Tests used:
# PC-3 [1] = test: Upregulation of p27 level in human PC-3 cells upto 10 uM by Western blot analysis; assay type: functional, cell-based; settings: time 48.0 hrs, TDE = time-dependent effect
# MCF7 = test: Antitumor activity against human MCF7 cells assessed as cell growth inhibition incubated for 72 hrs by MTT assay; assay type: functional, cell-based; settings: MCF7, 72 h
# NCI-H1299 = test: Antitumor activity against human NCI-H1299 cells overexpressing Skp2 assessed as cell growth inhibition incubated for 72 hrs by MTT assay; assay type: functional, cell-based; settings: NCI-H1299, 72 h
# [2] = target: S-phase kinase-associated protein 2 (Homo sapiens, UniProt Q13309); test: Inhibition of Skp2 in human MGC-803 cells treated with shRNA 5'-GGACCTATCGAACTCAGTTAT-3' incubated upto 48 hrs by Western blot analysis (reference value: 7 +/- 1.1 microM); assay type: cell-based
# MGC-803 [3] = test: Upregulation of p21 level in human MGC-803 cells at 10 uM incubated upto 48 hrs by Western blot analysis; assay type: functional, cell-based
# PC-3 [4] = test: Inhibition of cell migration in human PC-3 cells by transwell invasion assay; assay type: functional, cell-based; settings: dose <= 2.0 µM
# PC-3 [5] = test: Induction of cell cycle arrest in human PC-3 cells assessed as accumulation of cells at G1 phase at 2.5 uM incubated for 48 hrs by flow cytometry (reference value: 57.39 %); assay type: functional
# PC-3 [6] = test: Induction of cell cycle arrest in human PC-3 cells assessed as accumulation of cells at G2 phase at 2.5 uM incubated for 48 hrs by flow cytometry (reference value: 22.59 %); assay type: functional
# MGC-803 [7] = test: Induction of cell cycle arrest in human MGC-803 cells assessed as accumulation of cells at S phase at 10 uM incubated for 48 hrs by flow cytometry (reference value: 22.72 %); assay type: functional
# MGC-803 [8] = test: Induction of cell cycle arrest in human MGC-803 cells assessed as accumulation of cells at G2 phase at 10 uM incubated for 48 hrs by flow cytometry (reference value: 21.35 %); assay type: functional
# PC-3 [9] = test: Induction of cell cycle arrest in human PC-3 cells assessed as accumulation of cells at G1 phase at 10 uM incubated for 12 hrs by flow cytometry (reference value: 56.81 %); assay type: functional
# PC-3 [10] = test: Induction of cell cycle arrest in human PC-3 cells assessed as accumulation of cells at S phase at 10 uM incubated for 12 hrs by flow cytometry (reference value: 19.7 %); assay type: functional
# PC-3 [11] = test: Induction of cell cycle arrest in human PC-3 cells assessed as accumulation of cells at S phase at 10 uM incubated for 24 hrs by flow cytometry (reference value: 19.7 %); assay type: functional
# PC-3 [12] = test: Induction of cell cycle arrest in human PC-3 cells assessed as accumulation of cells at G2 phase at 10 uM incubated for 24 hrs by flow cytometry (reference value: 19.34 %); assay type: functional
# PC-3 [13] = test: Induction of cell cycle arrest in human PC-3 cells assessed as accumulation of cells at S phase at 10 uM incubated for 36 hrs by flow cytometry (reference value: 19.7 %); assay type: functional
# MGC-803 [14] = test: Induction of cell cycle arrest in human MGC-803 cells assessed as accumulation of cells at S phase at 10 uM incubated for 36 hrs by flow cytometry (reference value: 20.41 %); assay type: functional
# MGC-803 [15] = test: Induction of apoptosis in human MGC-803 cells assessed as nuclear condensation incubated for 48 hrs; assay type: functional, cell-based; settings: dose <= 10.0 µM
# MGC-803 [16] = test: Induction of apoptosis in human MGC-803 cells assessed as cell shrinkage incubated for 48 hrs; assay type: functional, cell-based; settings: dose <= 10.0 µM
# PC-3 [17] = test: Induction of apoptosis in human PC-3 cells assessed as early apoptotic cells at 2.5 uM incubated for 48 hrs by annexin V-FITC/PI staining based flow cytometry (reference value: 0.85 %); assay type: functional
# PC-3 [18] = test: Induction of apoptosis in human PC-3 cells assessed as viable cells at 5 uM incubated for 48 hrs by annexin V-FITC/PI staining based flow cytometry (reference value: 98.6 %); assay type: functional; settings: read-out: Activity
# PC-3 [19] = test: Induction of apoptosis in human PC-3 cells assessed as late apoptotic cells at 5 uM incubated for 48 hrs by annexin V-FITC/PI staining based flow cytometry (reference value: 0.45 %); assay type: functional
# PC-3 [20] = test: Induction of apoptosis in human PC-3 cells assessed as early apoptotic cells at 10 uM incubated for 48 hrs by annexin V-FITC/PI staining based flow cytometry (reference value: 0.85 %); assay type: functional
# PC-3 [21] = test: Induction of apoptosis in human PC-3 cells assessed as necrotic cells at 10 uM incubated for 48 hrs by annexin V-FITC/PI staining based flow cytometry (reference value: 0.14 %); assay type: functional
# MGC-803 [22] = test: Induction of apoptosis in human MGC-803 cells assessed as early apoptotic cells at 5 uM incubated for 48 hrs by annexin V-FITC/PI staining based flow cytometry (reference value: 0.21 %); assay type: functional
# MGC-803 [23] = test: Induction of apoptosis in human MGC-803 cells assessed as necrotic cells at 5 uM incubated for 48 hrs by annexin V-FITC/PI staining based flow cytometry (reference value: 0.89 %); assay type: functional
# MGC-803 [24] = test: Induction of apoptosis in human MGC-803 cells assessed as necrotic cells at 10 uM incubated for 48 hrs by annexin V-FITC/PI staining based flow cytometry (reference value: 0.89 %); assay type: functional
# PC-3 [25] = test: Antitumor activity against human PC-3 cells xenografted in NOD-SCID mouse model assessed as tumor growth inhibition at 10 mg/kg, IG administered once every 2 days for 21 days relative to control; assay type: functional; settings: PC-3, po, 504 h, time 21 day, read-out: TGI
# PC-3 [26] = test: Antitumor activity against human PC-3 cells xenografted in NOD-SCID mouse model assessed as tumor suppression at 50 mg/kg, IG administered once every 2 days for 21 days relative to control; assay type: functional; settings: time 21 day
# PC-3 [27] = test: Antitumor activity against human PC-3 cells xenografted in NOD-SCID mouse model assessed as downregulation of ki67 level at 10 to 50 mg/kg, IG administered once every 2 days for 21 days by Western blot analysis; assay type: functional, organism-based; settings: dose 10-50 mg/kg, time 21.0 day
# MGC-803 [28] = test: Antitumor activity against human MGC-803 cells xenografted in NOD-SCID mouse model assessed as downregulation of ki67 level at 10 to 50 mg/kg, IG administered once every 2 days for 21 days by Western blot analysis; assay type: functional, organism-based; settings: dose 10-50 mg/kg, time 21.0 day
# [29] = Toxicity in NOD-SCID mouse model xenografted with human MGC-803 cells assessed as change in heart histology at 10 to 50 mg/kg, IG administered once every 2 days for 21 days by H and E staining based analysis; assay type: organism-based; settings: in vivo, po, 504 h, dose 10-50 mg/kg, time 21 day
# [30] = Metabolic stability in human liver microsome assessed as half life at 20 umol/L preincubated for 5 mins followed by NADPH addition measured upto 60 mins by LC-MS/MS analysis; assay type: ADME; settings: liver microsomes, dose 20 µmol/L, time < 65 min
# [31] = Metabolic stability in rat liver S9 fraction assessed as half life at 20 umol/L preincubated for 5 mins followed by NADPH addition measured upto 60 mins by LC-MS/MS analysis; assay type: ADME, subcellular; settings: dose 20 µmol/L, time < 65 min
# [32] = Clearance in plasma of NOD-SCID mouse model xenografted with human PC-3 cells at 25 mg/kg, IG measured upto 48 hrs by LC-MS/MS analysis; assay type: ADME, organism-based; settings: po
# Chain of S-phase kinase-associated protein 2 (Q13309 whole entry): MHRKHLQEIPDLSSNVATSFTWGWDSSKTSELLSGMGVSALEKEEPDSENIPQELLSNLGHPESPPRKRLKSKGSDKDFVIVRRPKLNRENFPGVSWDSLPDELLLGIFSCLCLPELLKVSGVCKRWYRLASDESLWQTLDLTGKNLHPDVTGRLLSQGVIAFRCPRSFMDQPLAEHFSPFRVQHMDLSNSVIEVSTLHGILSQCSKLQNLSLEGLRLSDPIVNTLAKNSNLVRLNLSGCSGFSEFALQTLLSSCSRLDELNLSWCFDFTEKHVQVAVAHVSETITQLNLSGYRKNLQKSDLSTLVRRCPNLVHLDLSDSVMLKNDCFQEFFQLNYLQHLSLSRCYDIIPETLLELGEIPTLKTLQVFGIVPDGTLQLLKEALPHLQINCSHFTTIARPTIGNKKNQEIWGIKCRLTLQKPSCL
compound,measurement,setting,value
O=C(CCl)NC1CCN(c2cnc(-c3ccccc3)c(-c3ccccc3)n2)CC1,Activity,PC-3 [1],Tde
same,pIC50,MCF7,5.36
same,pIC50,NCI-H1299,5.44
same,pIC50,[2],4.41
same,Activity,MGC-803 [3],Active
same,inhibition,PC-3 [4],Dose-Dependent Effect
same,Activity,PC-3 [5],48.73%
same,Activity,PC-3 [6],18.47%
same,Activity,MGC-803 [7],45.07%
same,Activity,MGC-803 [8],14.35%
same,Activity,PC-3 [9],44.95%
same,Activity,PC-3 [10],32.51%
same,Activity,PC-3 [11],38.52%
same,Activity,PC-3 [12],15.19%
same,Activity,PC-3 [13],45.23%
same,Activity,MGC-803 [14],42.29%
same,Activity,MGC-803 [15],Dose-Dependent Effect
same,Activity,MGC-803 [16],Dose-Dependent Effect
same,Activity,PC-3 [17],0.96%
same,viability at 5 µM,PC-3 [18],82.5%
same,Activity,PC-3 [19],12%
same,Activity,PC-3 [20],0.2%
same,Activity,PC-3 [21],13.2%
same,Activity,MGC-803 [22],3.65%
same,Activity,MGC-803 [23],1.27%
same,Activity,MGC-803 [24],4.73%
same,inhibition in vivo at 10 mg/kg,PC-3 [25],55.7%
same,Activity,PC-3 [26],100%
same,Activity,PC-3 [27],Active
same,Activity,MGC-803 [28],Active
same,Activity,[29],Non-Toxic
same,half-life at 20 µM,[30],66 min
same,half-life at 20 µM,[31],15.4 min
same,CL/F,[32],118 mL/min/kg
